Source: patent US9018206B2, “Carboxamide compounds and their use as calpain inhibitors” (AbbVie Deutschland GmbH & Co. KG, priority 2009, dated 2015)

Tests used:
Type in all cases: biochemical
[1] = target: T1, calpain-I isolated from human erythrocytes (Homo sapiens, UniProt P07384); test: Calpain I enzyme inhibition in vitro (kinetic fluorescence assay); settings: apparent Ki from IC50 (Cheng-Prussoff); 20 nM calpain-I, 100 μM Suc-Leu-Tyr-AMC, pH 7.3, room temperature
T1 construct: calpain-I—isolated from human erythrocytes; purchased Calbiochem 208713; host or cells: human erythrocytes (tissue-derived)
T1 sequence (P07384 1-714): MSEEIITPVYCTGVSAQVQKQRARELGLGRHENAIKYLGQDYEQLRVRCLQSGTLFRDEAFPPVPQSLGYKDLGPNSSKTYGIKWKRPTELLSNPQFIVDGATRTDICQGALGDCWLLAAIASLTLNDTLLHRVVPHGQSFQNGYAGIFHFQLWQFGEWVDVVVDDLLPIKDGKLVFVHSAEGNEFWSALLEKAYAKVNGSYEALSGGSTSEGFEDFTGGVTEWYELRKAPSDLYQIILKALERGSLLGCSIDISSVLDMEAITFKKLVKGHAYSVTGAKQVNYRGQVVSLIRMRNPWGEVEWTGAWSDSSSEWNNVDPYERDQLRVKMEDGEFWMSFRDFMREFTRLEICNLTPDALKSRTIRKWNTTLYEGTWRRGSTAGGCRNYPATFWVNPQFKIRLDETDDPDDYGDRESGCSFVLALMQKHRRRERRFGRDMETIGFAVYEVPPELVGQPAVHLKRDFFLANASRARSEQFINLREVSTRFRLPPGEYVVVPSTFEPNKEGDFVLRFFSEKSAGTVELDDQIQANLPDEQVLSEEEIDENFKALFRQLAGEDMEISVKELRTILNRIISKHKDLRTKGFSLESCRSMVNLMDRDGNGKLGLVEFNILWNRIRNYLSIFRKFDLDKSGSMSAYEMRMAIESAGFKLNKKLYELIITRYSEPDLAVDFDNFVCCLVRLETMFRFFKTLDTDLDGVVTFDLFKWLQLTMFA
T1 sequence (P04632 1-268 partner): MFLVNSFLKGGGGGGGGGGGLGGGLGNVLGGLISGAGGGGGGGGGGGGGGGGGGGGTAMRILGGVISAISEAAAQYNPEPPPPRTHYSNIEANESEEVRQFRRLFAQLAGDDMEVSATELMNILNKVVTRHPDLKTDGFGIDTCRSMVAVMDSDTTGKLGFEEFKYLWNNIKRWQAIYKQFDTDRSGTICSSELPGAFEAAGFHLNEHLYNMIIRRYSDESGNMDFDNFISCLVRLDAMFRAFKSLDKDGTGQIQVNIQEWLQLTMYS
Description: (§1) Testing for blockade of the corresponding enzymic activities was carried out by means of kinetic fluorescence assays (excitation 390 nm, emission 460 nm).
(§2) Apparent Ki values were calculated from the experimentally determined IC50 values by the Cheng-Prussoff relation assuming a reversible competitive enzyme inhibition. The Km values of the substrates used under the assay conditions indicated above were: 90 μM (Z-Phe-Arg-AMC, cathepsin B), 10 μM (Z-Gly-Pro-Arg-AMC, cathepsin K), 2 μM (Z-Phe-Arg-AMC, cathepsin L), and 30 μM (Z-Val-Val-Arg-AMC, cathepsin S).
(§3) The indicated Ki values are averages of the inhibition constants calculated on the basis of 2 to 4 independent dose-effect plots.
(§4) • 20 nM calpain-I—isolated from human erythrocytes (Calbiochem #208713), 100 μM Suc-Leu-Tyr-AMC (Bachem #I-1355) as substrate in buffer with 62 mM imidazole, 0.3 mM CaCl2, 0.10% CHAPS, 0.05% BSA, 1 mM DTT at pH 7.3 and room temperature. 1. Cathepsin B: • 0.25 nM cathepsin B—isolated from human liver (Calbiochem #219362), 100 μM Z-Phe-Arg-AMC (Bachem #I-1160) as substrate 50 mM MES, 2 mM EDTA, 0.05% Brij 35, 2.5 mM L-cysteine, pH 6.0, room temperature. 3. Cathepsin K: • 3 nM cathepsin K activated from recombinant human procathepsin K from E. coli (Calbiochem #342001), 10 μM Z-Gly-Pro-Arg-AMC (Biomol #P-142) as substrate in 50 mM MES, 2 mM EDTA, 0.05% Brij 35, 2.5 mM L-cysteine, pH 6.0, room temperature. 4. Cathepsin L: • 1 nM cathepsin L—isolated from human liver (Calbiochem #219402), 2 μM Z-Phe-Arg-AMC (Bachem #I-1160) as substrate in 50 mM MES, 2 mM EDTA, 0.05% Brij 35, 2.5 mM L-cysteine, pH 6.0, room temperature. 5. Cathepsin S: • 0.5 nM recombinant human cathepsin S from E. coli (Calbiochem #219343), 20 μM Z-Val-Val-Arg-AMC (Bachem #I-1540) as substrate in 50 mM MES, 2 mM EDTA, 0.05% Brij 35, 2.5 mM L-cysteine, pH 6.0, room temperature.

[2] = target: T2, cathepsin B isolated from human liver (Homo sapiens, UniProt P07858); test: Cathepsin B enzyme inhibition in vitro (kinetic fluorescence assay); settings: Ki(cathepsin B)/Ki(calpain) ratio
T2 construct: cathepsin B—isolated from human liver; purchased Calbiochem 219362; host or cells: human liver (tissue-derived)
Description: as §1, §2, §3, §4

[3] = target: T3, cathepsin L isolated from human liver (Homo sapiens, UniProt P07711); test: Cathepsin L enzyme inhibition in vitro (kinetic fluorescence assay); settings: Ki(cathepsin L)/Ki(calpain) ratio
T3 construct: cathepsin L—isolated from human liver; purchased Calbiochem 219402; host or cells: human liver (tissue-derived)
T3 sequence (P07711 114-333): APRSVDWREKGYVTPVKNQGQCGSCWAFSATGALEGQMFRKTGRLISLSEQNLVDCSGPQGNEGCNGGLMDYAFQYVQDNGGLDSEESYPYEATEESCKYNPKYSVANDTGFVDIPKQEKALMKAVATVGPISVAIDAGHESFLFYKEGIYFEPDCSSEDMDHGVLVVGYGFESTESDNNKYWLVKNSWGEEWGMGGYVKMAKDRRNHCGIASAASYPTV
Description: as §1, §2, §3, §4

[4] = target: T4, recombinant human cathepsin S (Homo sapiens, UniProt P25774); test: Cathepsin S enzyme inhibition in vitro (kinetic fluorescence assay); settings: Ki(cathepsin S)/Ki(calpain) ratio
T4 construct: purchased Calbiochem 219343; host or cells: E. coli
T4 sequence (P25774 115-331): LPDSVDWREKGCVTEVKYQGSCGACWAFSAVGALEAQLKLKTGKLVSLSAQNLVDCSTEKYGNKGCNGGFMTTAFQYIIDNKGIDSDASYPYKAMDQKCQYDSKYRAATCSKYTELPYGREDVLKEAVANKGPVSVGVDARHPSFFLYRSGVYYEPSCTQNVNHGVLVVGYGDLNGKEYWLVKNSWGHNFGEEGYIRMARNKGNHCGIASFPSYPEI
Description: as §1, §2, §3, §4

[5] = target: T5, cathepsin K activated from recombinant human procathepsin K (Homo sapiens, UniProt P43235); test: Cathepsin K enzyme inhibition in vitro (kinetic fluorescence assay); settings: Ki(cathepsin K)/Ki(calpain) ratio
T5 construct: purchased Calbiochem 342001; host or cells: E. coli
T5 sequence (P43235 115-329): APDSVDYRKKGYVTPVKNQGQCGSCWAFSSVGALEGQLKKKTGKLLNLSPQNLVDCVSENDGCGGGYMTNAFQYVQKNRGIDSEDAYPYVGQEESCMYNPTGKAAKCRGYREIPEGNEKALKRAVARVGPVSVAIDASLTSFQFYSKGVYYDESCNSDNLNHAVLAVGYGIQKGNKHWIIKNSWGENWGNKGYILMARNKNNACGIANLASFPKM
Description: as §1, §2, §3, §4

| SMILES | Ki [1] | Sel cat. B [2] | Sel cat. L [3] | Sel cat. S [4] | Sel cat. K [5] |
| --- | --- | --- | --- | --- | --- |
| O=C(NC1CC1)C(=O)C(Cc1ccccc1)NC(=O)[C@H]1CCC(=O)N1Cc1c(F)cccc1F (mixture of isomers) [Example 48, (2R)—N-(4-(Cyclopropylamino)-3,4-dioxo-1-phenylbutan-2-yl)-1-(2,6-difluorobenzyl)-5-oxopyrrolidine-2-carboxamide] | 100 to 600 nM | +++ (Ki(cathepsin B)/Ki(calpain) ratio of >30) | ++ (10<Ki(cathepsin B)/Ki(calpain)≦30) |  |  |
| CCNC(=O)C(=O)C(Cc1ccccc1)NC(=O)[C@H]1CCC(=O)N1Cc1c(F)cccc1F (mixture of isomers) [Example 49, (2R)-1-(2,6-Difluorobenzyl)-N-(4-(ethylamino)-3,4-dioxo-1-phenylbutan-2-yl)-5-oxopyrrolidine-2-carboxamide] | 100 to 600 nM | +++ (Ki(cathepsin B)/Ki(calpain) ratio of >30) | ++ (10<Ki(cathepsin B)/Ki(calpain)≦30) |  |  |
| O=C(NC1CCCCC1)C(=O)C(Cc1ccccc1)NC(=O)[C@H]1CCC(=O)N1Cc1ccccc1 (mixture of isomers) [Example 56, (2R)-1-Benzyl-N-(4-(cyclohexylamino)-3,4-dioxo-1-phenylbutan-2-yl)-5-oxopyrrolidine-2-carboxamide] | 50 to 100 nM | ++ (10<Ki(cathepsin B)/Ki(calpain)≦30) |  | ++ (30<Ki(cathepsin B)/Ki(calpain)≦100) | + (5<Ki(cathepsin K)/Ki(calpain)≦10) |
| O=C(NNC(=O)c1ccccc1)C(=O)C(Cc1ccccc1)NC(=O)[C@H]1CCC(=O)N1Cc1ccccc1 (mixture of isomers) [Example 57, (2R)—N-(4-(2-Benzoylhydrazinyl)-3,4-dioxo-1-phenylbutan-2-yl)-1-benzyl-5-oxopyrrolidine-2-carboxamide] | 50 to 100 nM | + (5<Ki(cathepsin B)/Ki(calpain)≦10) |  | +++ (Ki(cathepsin S)/Ki(calpain) ratio of >100) | ++ (10<Ki(cathepsin B)/Ki(calpain)≦30) |
| O=C(NC1CC1)C(=O)C(Cc1ccccc1)NC(=O)[C@H]1CCC(=O)N1Cc1ccc(C(F)(F)F)cc1 (mixture of isomers) [Example 58, (2R)—N-(4-(Cyclopropylamino)-3,4-dioxo-1-phenylbutan-2-yl)-5-oxo-1-(4-(trifluoromethyl)benzyl)pyrrolidine-2-carboxamide] | 100 to 600 nM | + (5<Ki(cathepsin B)/Ki(calpain)≦10) |  | ++ (30<Ki(cathepsin B)/Ki(calpain)≦100) | + (5<Ki(cathepsin K)/Ki(calpain)≦10) |
| NC(=O)C(=O)C(Cc1ccccc1)NC(=O)[C@@H]1CCC(=O)N1Cc1ccccc1 (stereo partly drawn) [Example 2, (2S)—N-(4-Amino-3,4-dioxo-1-phenylbutan-2-yl)-1-benzyl-5-oxopyrrolidine-2-carboxamide] | 100 to 600 nM |  | + (5<Ki(cathepsin L)/Ki(calpain)≦10) |  | ++ (10<Ki(cathepsin B)/Ki(calpain)≦30) |
| COc1cccc(CN2C(=O)CC[C@@H]2C(=O)NC(Cc2ccccc2)C(=O)C(N)=O)c1 (stereo partly drawn) [Example 6, (2R)—N-(4-Amino-3,4-dioxo-1-phenylbutan-2-yl)-1-(3-methoxybenzyl)-5-oxopyrrolidine-2-carboxamide] | < 50 nM | + (5<Ki(cathepsin B)/Ki(calpain)≦10) |  | ++ (30<Ki(cathepsin B)/Ki(calpain)≦100) | +++ (Ki(cathepsin K)/Ki(calpain) ratio of >30) |
| NC(=O)C(=O)C(Cc1ccccc1)NC(=O)C1CCS(=O)(=O)N1Cc1ccccc1 (stereo not drawn) [Example 10, N-(4-Amino-3,4-dioxo-1-phenylbutan-2-yl)-2-benzylisothiazolidine-3-carboxamide 1,1-dioxide] | < 50 nM | +++ (Ki(cathepsin B)/Ki(calpain) ratio of >30) | ++ (10<Ki(cathepsin B)/Ki(calpain)≦30) |  |  |
| NC(=O)C(=O)C(Cc1ccccc1)NC(=O)[C@H]1CCC(=O)N1Cc1cccc2ccccc12 (stereo partly drawn) [Example 11, (2R)—N-(4-Amino-3,4-dioxo-1-phenylbutan-2-yl)-1-(naphthalen-1-ylmethyl)-5-oxopyrrolidine-2-carboxamide] | < 50 nM | ++ (10<Ki(cathepsin B)/Ki(calpain)≦30) |  | ++ (30<Ki(cathepsin B)/Ki(calpain)≦100) | +++ (Ki(cathepsin K)/Ki(calpain) ratio of >30) |
| NC(=O)C(=O)C(Cc1ccccc1)NC(=O)[C@H]1CCC(=O)N1Cc1cccc(OC(F)(F)F)c1 (stereo partly drawn) [Example 13, (2R)—N-(4-Amino-3,4-dioxo-1-phenylbutan-2-yl)-5-oxo-1-[3-(trifluoromethoxy)-benzyl]pyrrolidine-2-carboxamide] | 100 to 600 nM | + (5<Ki(cathepsin B)/Ki(calpain)≦10) |  | ++ (30<Ki(cathepsin B)/Ki(calpain)≦100) | +++ (Ki(cathepsin K)/Ki(calpain) ratio of >30) |
| C[C@H]1C[C@H](C(=O)NC(Cc2ccccc2)C(=O)C(N)=O)N(Cc2ccccc2)C1=O (stereo partly drawn) [Example 19, (2R,4S)—N-(4-Amino-3,4-dioxo-1-phenylbutan-2-yl)-1-benzyl-4-methyl-5-oxopyrrolidine-2-carboxamide] | < 50 nM | ++ (10<Ki(cathepsin B)/Ki(calpain)≦30) | ++ (10<Ki(cathepsin B)/Ki(calpain)≦30) |  |  |
